# Assay results from US5621007A, “Method for regulation of transmembrane chloride conductance” (Bristol-Myers Squibb Company, priority 1995, dated 1997).
# Entries after “also recorded” stand apart in the source; their conditions may differ. Read-outs that look alike come from different tables or passages of the source.
# Tests used:
# ΔF508 CFTR [1] = experiment: Whole-cell patch clamp, Vero cells expressing ΔF508 CFTR; assay type: cell-based
# mock transfected cells [2] = test system: mock transfected cells
# ΔF508 CFTR [3] = experiment: 125I efflux from Vero cells expressing ΔF508 CFTR; assay type: cell-based
# [4] = test system: ΔF508 mutant CFTR Cl- channels; assay type: cell-based
# [5] = test system: Control cells (not expressing CFTR constructs); experiment: Outside-out patch clamp, control Vero cells not expressing CFTR constructs; assay type: cell-based, monkey
# Protocol: Subsequently, various concentrations of NS004 were tested for direct effects on ^125 I efflux in cells expressing wild-type and ΔF508 CFTR constructs, the ability of NS004 to affect the anion efflux stimulated by cAMP (produced by application of Forskolin) was also tested. In addition, both whole-cell and single-channel (outside-out) patch clamp configurations were employed to directly determine the effects of cAMP (produced by addition of Forskolin), NS004, and the combination of cAMP and NS004 on whole-cell and single channel Cl^- currents in infected Vero cells under nominally sodium and potassium-free conditions. In all cases data were collected and analyzed by computer.
# wild-type CFTR [6] = molecular target: T1, wild-type CFTR (Homo sapiens, UniProt P13569); experiment: Two-electrode voltage clamp, Xenopus oocytes expressing wild-type CFTR; assay type: cell-based
# T1 sequence (P13569 whole entry): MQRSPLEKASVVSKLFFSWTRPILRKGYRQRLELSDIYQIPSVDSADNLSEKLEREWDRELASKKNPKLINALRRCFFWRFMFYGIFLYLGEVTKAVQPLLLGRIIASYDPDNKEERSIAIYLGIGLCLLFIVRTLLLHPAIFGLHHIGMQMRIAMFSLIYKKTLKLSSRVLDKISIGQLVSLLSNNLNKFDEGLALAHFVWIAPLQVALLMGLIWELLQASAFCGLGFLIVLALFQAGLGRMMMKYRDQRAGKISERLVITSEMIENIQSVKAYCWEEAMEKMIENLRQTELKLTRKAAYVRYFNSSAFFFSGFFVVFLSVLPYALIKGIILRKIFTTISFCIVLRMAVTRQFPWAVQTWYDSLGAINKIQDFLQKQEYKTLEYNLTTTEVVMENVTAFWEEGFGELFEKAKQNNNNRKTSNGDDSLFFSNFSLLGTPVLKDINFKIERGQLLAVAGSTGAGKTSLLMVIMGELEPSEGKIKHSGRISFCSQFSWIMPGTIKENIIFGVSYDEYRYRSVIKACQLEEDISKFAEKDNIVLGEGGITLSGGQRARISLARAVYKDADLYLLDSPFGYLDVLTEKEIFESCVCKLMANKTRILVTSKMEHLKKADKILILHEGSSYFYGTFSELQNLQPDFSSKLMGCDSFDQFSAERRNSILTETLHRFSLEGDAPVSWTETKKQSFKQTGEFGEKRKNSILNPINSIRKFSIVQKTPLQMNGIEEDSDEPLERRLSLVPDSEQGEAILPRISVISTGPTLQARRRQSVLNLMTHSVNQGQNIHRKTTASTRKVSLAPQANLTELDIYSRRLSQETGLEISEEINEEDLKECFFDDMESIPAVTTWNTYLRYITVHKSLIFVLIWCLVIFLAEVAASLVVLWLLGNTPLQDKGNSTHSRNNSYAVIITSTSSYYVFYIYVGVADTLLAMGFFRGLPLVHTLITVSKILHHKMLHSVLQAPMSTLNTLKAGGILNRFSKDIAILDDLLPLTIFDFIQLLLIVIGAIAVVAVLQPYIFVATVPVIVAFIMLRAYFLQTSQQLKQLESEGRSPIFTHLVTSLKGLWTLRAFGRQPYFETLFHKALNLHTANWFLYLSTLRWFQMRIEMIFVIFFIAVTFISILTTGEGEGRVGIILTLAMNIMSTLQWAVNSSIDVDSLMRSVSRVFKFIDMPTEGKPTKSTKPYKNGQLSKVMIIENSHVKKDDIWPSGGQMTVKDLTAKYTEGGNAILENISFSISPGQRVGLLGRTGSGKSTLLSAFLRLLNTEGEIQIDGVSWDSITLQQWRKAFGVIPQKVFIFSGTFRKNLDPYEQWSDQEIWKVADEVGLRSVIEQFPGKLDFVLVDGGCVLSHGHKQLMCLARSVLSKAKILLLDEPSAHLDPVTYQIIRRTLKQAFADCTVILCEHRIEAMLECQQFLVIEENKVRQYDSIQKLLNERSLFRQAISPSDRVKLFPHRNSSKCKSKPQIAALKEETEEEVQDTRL
# wild-type CFTR [7] = molecular target: T1, wild-type CFTR; experiment: Whole-cell patch clamp, Vero cells expressing wild-type CFTR; assay type: cell-based
# wild-type CFTR [8] = molecular target: T1, wild-type CFTR; experiment: 125I efflux from Vero cells expressing wild-type CFTR; assay type: cell-based
# ΔF508 CFTR [9] = experiment: Two-electrode voltage clamp, Xenopus oocytes expressing ΔF508 CFTR; assay type: cell-based
# mock transfected cells [10] = experiment: Whole-cell patch clamp, mock transfected Vero cells; assay type: cell-based, monkey
# [11] = test system: wild-type CFTR Cl- channels; experiment: Outside-out single channel patch clamp, Vero cells expressing wild-type CFTR; assay type: cell-based; details: sub-micromolar to micromolar NS004, outside-out excised patches
# [12] = test system: uninjected or H2 O-injected oocytes; experiment: Two-electrode voltage clamp, uninjected or H2O-injected oocytes (control); assay type: cell-based, Xenopus laevis; details: NS004, uninjected or H2O-injected oocytes
# Protocol: Oocytes were surgically removed from Xenopus laevis anesthetized with 0.12% 3-aminobenzoic acid ethyl ester (Tricaine). Oocytes were first rinsed with Ca^2+ -free OR2 medium (82.5 mM NaCl, 1 mM KCl, 1 mM MgCl2, 5 mM HEPES, pH 7.5 with NaOH) followed by incubation in collagenase (1.5 mg/ml prepared in Ca^2+ -free OR2 medium) for 4 hours at room temperature. After enzyme treatment, cells were rinsed 8× with OR2 medium and then rinsed again 8× with ND96 medium (90 mM NaCl, 1 mM KCl, 1 mM CaCl2, 1 mM MgCl2, 5 mM HEPES, pH 7.5 with NaOH). Oocytes were stored overnight at 17° C. Late stage V and early stage VI cells that were visualized to be fully defolliculated to the vitelline envelope were selected for microinjection.
# Electrophysiological evaluation of the effects of putative CFTR openers were assessed in oocytes expressing wild-type and ΔF508 CFTR constructs using standard two-electrode voltage clamp techniques. Generally, a family of currents was generated under control conditions (incubated in Modified Barth's Solution, MBS, a typical physiological saline medium, in the absence of drugs), with no current or small currents generated under drug-free conditions. […] Data were collected and analyzed using a computer equipped with an A/D interface and appropriate acquisition and analysis software.
# chloride channels = details: cited from earlier work
# [13] = NS004 alone at the flux-experiment concentrations, Vero cells
smiles,measurement,setting,value
"O=c1[nH]c2cc(C(F)(F)F)ccc2n1-c1cc(Cl)ccc1O [NS004, 5-trifluoromethyl-1-(5-chloro-2-hydroxyphenyl)-1,3-dihydro-2H-benzimidazol-2-one]",whole cell inward and outward Cl- current,ΔF508 CFTR [1]; [13],large to moderate increases; also recorded: smaller direct increase in whole cell Cl^- current
same,maximal stimulation of Cl- current by cAMP,"ΔF508 CFTR [1]; cAMP plus NS004, Vero cells",potently potentiated the maximal stimulation of Cl^- current by cAMP; also recorded: profound potentiation of cAMP stimulation of Cl^- current
same,response time to peak of cAMP-stimulated Cl- current,"ΔF508 CFTR [1]; cAMP plus NS004, Vero cells",greatly enhanced the response time to peak
same,response on 125I efflux,mock transfected cells [2],no response
same,time course of the increase in anion flux produced by cAMP,"ΔF508 CFTR [3]; cAMP plus NS004, Vero cells, ΔF508 CFTR",reduced the slow time course
same,levels of 125I efflux attained,"ΔF508 CFTR [3]; co-administration of cAMP and NS004, ΔF508 CFTR, compared with cAMP in wild-type CFTR cells",comparable to the efflux stimulated by cAMP in cells expressing wild-type CFTR
same,amplitude of the increase in 125I efflux produced by cAMP,"ΔF508 CFTR [3]; coapplication of cAMP (Forskolin, 5 μM in FIG. 2) and NS004, Vero cells, ΔF508 CFTR",greatly potentiated; also recorded: greatly enhanced the amplitude; also recorded: robust potentiation of ^125 I efflux
same,125I-flux,"ΔF508 CFTR [3]; direct application of NS004 alone, Vero cells, ΔF508 CFTR",only marginally effected; also recorded: only modest direct increases in ^125 I efflux
same,opening / open probability of single Cl- channels,[4],rapid and reversible direct increase in the opening of these channels; also recorded: potently and directly opened Cl^- channels; also recorded: greatly increased the open probability
same,channel response to drug application,[5],did not respond to drug application
same,chloride current of the cAMP-stimulated channel,"wild-type CFTR [6]; NS004 added to cAMP-stimulated wild-type CFTR, oocytes",only a marginal enhancement of chloride current; also recorded: only a small potentiation of cAMP-stimulated current
same,reversibility of the increase in Cl- current,"wild-type CFTR [6]; NS004 alone, Xenopus oocytes, wild-type CFTR",rapidly reversible; also recorded: reversibly open
same,Cl- current,"wild-type CFTR [6]; NS004 applied alone, unstimulated wild-type CFTR, Xenopus oocytes",large increase in Cl^- current; also recorded: great efficacy; also recorded: significant increase in the Cl^- current
same,potency (concentration range) for opening unstimulated wild-type CFTR,wild-type CFTR [6]; Xenopus oocytes,sub-micromolar to micromolar
same,whole cell inward and outward Cl- current,wild-type CFTR [7]; [13],large to moderate increases; also recorded: significant increase in the Cl^- current
same,whole cell Cl- current relative to cAMP alone,"wild-type CFTR [7]; combination of cAMP stimulation and NS004, Vero cells",only marginal increases in current; also recorded: only a small potentiation of cAMP-stimulated current
same,125I efflux relative to control,"wild-type CFTR [8]; NS004 20 μM alone, Vero cells expressing CFTR (FIG. 2)",increased relative to control
same,125I-flux over control values,"wild-type CFTR [8]; NS004 alone, 0.1-20 micromolar concentration range, Vero cells, wild-type CFTR",increased modestly over control values; also recorded: only modest direct increases in ^125 I efflux
same,total anion flux,"wild-type CFTR [8]; both cAMP and NS004, Vero cells, wild-type CFTR",did not significantly increase total anion flux
same,chloride current,"ΔF508 CFTR [9]; NS004 applied alone, oocytes expressing ΔF508 CFTR",only a small enhancement of chloride current; also recorded: smaller direct increase in whole cell Cl^- current
same,level of cAMP stimulation of channel activity (Cl- current),"ΔF508 CFTR [9]; NS004 simultaneously applied with cAMP and related agents, oocytes expressing ΔF508",greatly exacerbated the level of cAMP stimulation of channel activity; also recorded: profound potentiation of cAMP stimulation of Cl^- current
same,time course of cAMP-stimulated chloride current increase,"ΔF508 CFTR [9]; both cAMP and NS004 present, oocytes expressing ΔF508",greatly reduced (response time enhanced)
same,effect on whole cell Cl- current,mock transfected cells [10],no effects
same,opening / open probability of single Cl- channels,[11],potently and directly opened Cl^- channels; also recorded: greatly increased the open probability
same,increase in Cl- current,[12],never seen
"C1CCN2C[C@@H]3C[C@@H](CN4CCCC[C@@H]34)[C@H]2C1 [sparteine, dodecahydro-7,14-methano-2H,6H-di-pyrido[1,2-a;1',2'-e][1,5]diazocine]",effect on chloride channels,chloride channels; higher doses,blocking chloride channels
same,effect on chloride channels,chloride channels; low doses,activating chloride channels
